Holding throughout (assay type): in vivo
Experiment [1] deals with Varroa jacobsoni (Varroa mites). Kind of experiment: Efficacy against Varroa jacobsoni parasites on infested honeybees, topical application (mite mortality). The conditions noted are these: 120 h, topical 1 μl acetone solution, 5 days, 31° C. The protocol:
(§1) Evaluation Of The Efficacy Of Test Compound Against Varroa jacobsoni Parasites
(§2) In this evaluation, honeybees (Apis mellifera) taken from hives which are 70-90% infested with Varroa jacobsoni (Varroa mites) are chilled to immobilize the bees. A 1 μl droplet of an acetone solution of tebufenpyrad is applied to the dorsal abdomen of each bee. Control bees receive 1 μl droplet of acetone. A total of 50-52 bees are treated for each dose rate tested. Treatment dose rates are based upon the LD50 (dose rate required to obtain 50% mortality of healthy uninfected bees) of tebufenypyrad and are set at 10% of the LD50 and subsequent 10-fold dilution thereof. The treated bees are placed in an incubator at 31° C. in the dark and fed 50% sugar water ad libitum for 5 days. After incubation, the bees are examined for mortality and mite infestation. The results are shown in Table I below, as % mortality of the total of the bees and the total of the mites.

In a further experiment the test system is Varroa jacobsoni. The experiment is described as follows: Field evaluation against Varroa jacobsoni parasites in infested beehives (stickyboard count). The note with it: two strips containing 18% tebufenpyrad in 60:40 beeswax:lard, 24 hours after treatment. An excerpt:
Field Evaluation Of The Efficiacy Of Test Compound Against Varroa jacobsoni Parasites
In this evaluation, two Varroa jacobsoni infested beehives are monitored for the extent of infestation using stickyboards inserted at the bottom of the hive. Data are presented as the number of mites trapped on the stickyboard per day. Two strips (2.5×17 cm) containing 18% tebufenpyrad dissolved in a 60:40 beeswax:lard (Crisco®) mixture are inserted into each hive brood chamber as per standard practice. One day after treatment, the stickyboards are removed and the dead mites counted.

Experiment [2] concerns Acarapis woodi (trachea mites). Kind of experiment: Efficacy against Acarapis woodi parasites on treated glass slides. The note with it: slides dipped in 500 ppm acetone solution. An excerpt:
Evaluation Of The Efficacy Of Test Compound Against Acarapis woodi Parasites
In this evaluation, honeybees (Apis mellifera) which are infested with Acarapis woodi (trachea mites) are dissected to remove the infested tracheae. Glass microscope slides are dipped into acetone solutions of tebufenpyrad (500 ppm)and the acetone is allowed to evaporate. Infested tracheae are placed directly on the treated slides. The mites are removed from the tracheae by dissection and forced to walk across the treated area. The elapsed time is recorded for 100% mortality, i.e. no movement is observed upon agitation.

Experiment [3] relates to honeybees (Apis mellifera). Kind of experiment: Mortality of the Varroa-infested honeybees, topical application. The note with it: 120 h, topical 1 μl acetone solution, 5 days, 31° C., read-out: % Mortality, Bees. The protocol:
as §1, §2

Consider `CCc1nn(C)c(C(=O)NCc2ccc(C(C)(C)C)cc2)c1Cl` [Tebufenpyrad, N-(4-t-butylbenzyl)-4-chloro-3-ethyl-1-methylpyrazole-5-carboxamide], for which the values for the mortality at 0.006 µg/bee in experiment [1] (0.006 μg/bee) and in experiment [3] (0.006 μg/bee) were 58% and 24%, respectively. Besides, the mortality – broadly, the share of the test organisms that died – at 0.06 µg/bee in experiment [1] (0.06 μg/bee) is 44%; in experiment [3] (0.06 μg/bee), 25%. Also, the mortality at 0.6 µg/bee in experiment [1] (0.6 μg/bee) was 92%; in experiment [3] (0.6 μg/bee), 28%. For the same compound, the “Treatment mites/day (dead mites trapped on stickyboard)” value in the experiment on Varroa jacobsoni (Hive 1, pretreatment 101 mites/day) came out at 1777 mites/day; in the experiment with Varroa jacobsoni (Hive 2, pretreatment 66 mites/day), 1080 mites/day. In addition, the “Time required to achieve 100% mortality” value in experiment [2] (Rep. 1, 7 mites) came out at 8.5 min; in experiment [2] (Rep. 2, 10 mites), 8 min; in experiment [2] (Rep. 3, 7 mites), 8 min.

Source of the values: patent publication US6204283A, “Parasitic mite control on beneficial insects” (American Cyanamid Company, priority 1999, dated 2001).
